According to patent US20020111314A1, “Novel stimulation of gene expression and protein synthesis of heat shock protein 72/73 (Hsp 70)” (The Trustees of Columbia University, priority 1995, published 2002):
Square brackets hold non-standard residues; d marks the D form. Peptide text beside a SMILES is read from it. Nle = CCCC[C@H](N)C(=O)O

Tested on: Hsp70
Experiment: Hsp70 turnover (pulse-chase) in HepG2 cells
Format: cell-based, human
Description: FIGS. 4A-4B: Effects of ALLN on Hsp70 turnover and synthesis rates in HepG2 cells. Confluent culture dishes were preincubated for 4 hours with serum-free MEM containing either 1.5% BSA alone (Control) or BSA plus 40 μg/ml of ALLN (ALLN). (A) The preincubated cells were radiolabeled with 3H-leucine (150 μCi/ml) in serum-free, leucine-free medium with/without ALLN for 20 min., washed 3 times with medium free of isotope and then chased in serum-free medium containing BSA with/without ALLN for up to 20 hours. At the indicated time points, cells were harvested and lysed. Samples were immediately stored in a −80° C. freezer. Immunoprecipitation of Hsp70 was performed as described in FIG. 1. […]
FIGS. 8A-8C: Effects of ALLN on Hsp70 synthesis and turnover rates in HepG2 cells. […] Immunoprecipitates were analyzed on SDS-PAGE and fluorography (A) and also aliquoted for scintillation counting (B). […]
Since ALLN is a cysteine protease inhibitor, the possibility that protection of Hsp70 from proteolytic degradation accounted for the sharp increase in Hsp70 induced by ALLN was tested (Rock, et al., 1994; Ward, et al., 1995; Hiwasa, et al., 1990; Inoue, et al., 1991; and Sakata, et al., 1993). To determine whether ALLN stabilizes Hsp70, the turnover rate of radiolabeled Hsp70 in the presence or absence of ALLN (40 μg/ml) was measured in a pulse-chase experiment. […]

CCCC[C@@H](C=O)NC(=O)[C@H](CC(C)C)NC(=O)[C@H](CC(C)C)NC(C)=O [ALLN, N-acetyl-leucyl-leucyl-norleucinal] (Ac-Leu-Leu-[Nle]-aldehyde)
increase in the half-life of Hsp70 (ALLN 40 μg/ml vs without ALLN): 3-4 fold | half life of newly synthesized Hsp70 in the presence of ALLN (ALLN 40 μg/ml, pulse-chase): about 6 hours
